For the experiment, the system named is L1210 leukemia ip in BDF1 mice, survival T/C. Kind of experiment: NCI In Vivo Anticancer Drug Screen. Data for tumor model L1210 Leukemia (intraperitoneal) in B6D2F1 (BDF1) mice. The conditions noted are these: endpoint: mean survival time, higher = longer survival. In a few lines: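 Read-out is survival time, reported as the treated-group measurement over the vehicle-control measurement.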

[1] abbreviates: dose: 100.0 mg/kg/injection, schedule: Q04DX003 (ip), vehicle: saline.
The mark [2] stands for this setting: dose: 200.0 mg/kg/injection, schedule: Q04DX003 (ip), vehicle: saline.
Setting [3] is: dose: 400.0 mg/kg/injection, schedule: Q04DX003 (ip), vehicle: saline.
Where [4] appears, read: dose: 100.0 mg/kg/injection, schedule: Q04DX003 (ip), vehicle: Klucel (hydroxypropylcellulose) (HPC).
Setting [5] is: dose: 200.0 mg/kg/injection, schedule: Q04DX003 (ip), vehicle: Klucel (hydroxypropylcellulose) (HPC).
The mark [6] stands for this setting: dose: 400.0 mg/kg/injection, schedule: Q04DX003 (ip), vehicle: Klucel (hydroxypropylcellulose) (HPC).
Setting [7] is: dose: 50.0 mg/kg/injection, schedule: Q01DX009 (ip), vehicle: Klucel (hydroxypropylcellulose) (HPC).
The mark [8] stands for this setting: dose: 25.0 mg/kg/injection, schedule: Q04DX003 (ip), vehicle: Klucel (hydroxypropylcellulose) (HPC).
The mark [9] stands for this setting: dose: 50.0 mg/kg/injection, schedule: Q04DX003 (ip), vehicle: Klucel (hydroxypropylcellulose) (HPC).
Setting [10] is: dose: 100.0 mg/kg/injection, schedule: Q01DX009 (ip), vehicle: saline.
Where [11] appears, read: dose: 200.0 mg/kg/injection, schedule: Q01DX009 (ip), vehicle: saline.
Where [12] appears, read: dose: 400.0 mg/kg/injection, schedule: Q01DX009 (ip), vehicle: saline.

“And” between values parts separate entries of the source, which are not always exact repeats. Equal entries are not always repeated. Toxic doses and inconclusive results are not listed.

Take `O=C(OCCN1C(=O)c2cccc3c(Br)ccc(c23)C1=O)OCc1ccccc1`: the T/C is, setting by setting: (dose: 100.0 mg/kg/injection, schedule: Q04DX002 (ip), vehicle: alcohol) 103 % of control; (dose: 200.0 mg/kg/injection, schedule: Q04DX002 (ip), vehicle: alcohol) 100 % of control; (dose: 400.0 mg/kg/injection, schedule: Q04DX002 (ip), vehicle: alcohol) 100 % of control.

Take `COc1cc(C(=O)N2CC2)cc(OC)c1OC`: the T/C (dose: 25.0 mg/kg/injection, schedule: Q01DX009 (ip), vehicle: water) was 96 % of control and the T/C (dose: 50.0 mg/kg/injection, schedule: Q01DX009 (ip), vehicle: water) is 96 % of control.

On to `O=C(NSNc1ccccc1)c1ccccc1`, for which the T/C reads like this: (dose: 100.0 mg/kg/injection, schedule: Q04DX002 (ip), vehicle: Klucel (hydroxypropylcellulose) (HPC)) 110 % of control; (dose: 200.0 mg/kg/injection, schedule: Q04DX002 (ip), vehicle: Klucel (hydroxypropylcellulose) (HPC)) 103 % of control; (dose: 400.0 mg/kg/injection, schedule: Q04DX002 (ip), vehicle: Klucel (hydroxypropylcellulose) (HPC)) 100 % of control.

Consider `ClCc1c2ccccc2cc2ccccc12`, for which the T/C is 101 % of control (dose: 6.25 mg/kg/injection, schedule: Q04DX002 (ip), vehicle: saline with Tween-80) and 101 % of control (dose: 12.5 mg/kg/injection, schedule: Q04DX002 (ip), vehicle: saline with Tween-80).

Regarding `CC(=O)CC(=O)NCc1cccc(C)n1`, the T/C by setting is: under setting [1], 114 % of control; under setting [2], 98 % of control; under setting [3], 103 % of control.

With `COc1ccc2c(c1OC)C13CCN(C)C(C2)C12C=CC(=O)C3c1c(OC)ccc(OC)c12` (stereo unspecified), the T/C (dose: 100.0 mg/kg/injection, schedule: Q01DX001 (ip), vehicle: saline) is 95 % of control; the T/C (dose: 200.0 mg/kg/injection, schedule: Q01DX001 (ip), vehicle: saline) is 95 % of control; the T/C (dose: 400.0 mg/kg/injection, schedule: Q01DX001 (ip), vehicle: saline) was 91 % of control.

With `FC(F)(F)C1=N/C(=C2\N=C(C(F)(F)F)N=C2Cl)C(Cl)=N1`, the T/C reads like this: (dose: 25.0 mg/kg/injection, schedule: Q01DX009 (ip), vehicle: saline with Tween-80) 94 % of control; (dose: 50.0 mg/kg/injection, schedule: Q01DX009 (ip), vehicle: saline with Tween-80) 96 % of control.

As for `Cc1cc(C(=O)O)c(CO)c(=O)n1C`, the T/C was 104 % of control (dose: 100.0 mg/kg/injection, schedule: Q04DX003 (ip), vehicle: water); 104 % of control (dose: 200.0 mg/kg/injection, schedule: Q04DX003 (ip), vehicle: water); 94 % of control (dose: 400.0 mg/kg/injection, schedule: Q04DX003 (ip), vehicle: water).

For `CNC(=O)N(C)N=O`, the T/C reads like this: (dose: 10.0 mg/kg/injection, schedule: Q01DX Z (ip), vehicle: carboxymethylcellulose (CMC)) 92 % of control; (dose: 75.0 mg/kg/injection, schedule: Q01DX Z (ip), vehicle: carboxymethylcellulose (CMC)) 157 % of control and 168 % of control; (dose: 100.0 mg/kg/injection, schedule: Q01DX Z (ip), vehicle: carboxymethylcellulose (CMC)) 155 % of control; (dose: 125.0 mg/kg/injection, schedule: Q01DX Z (ip), vehicle: carboxymethylcellulose (CMC)) 101 % of control.

For the molecule `CCOc1ccc(NC(=O)OC(C)C)cc1`, the T/C reads like this: under setting [4], 89 % of control; under setting [5], 94 % of control; under setting [6], 103 % of control.

For `CC12CCC3C4CCC(=O)C(O)=C4CCC3C1CCC2OC(=O)CCC1CCCC1` (stereo unspecified), the T/C runs as follows: (dose: 100.0 mg/kg/injection, schedule: Q01DX009 (sc), vehicle: steriod suspending solution) 96 % of control; (dose: 200.0 mg/kg/injection, schedule: Q01DX009 (sc), vehicle: steriod suspending solution) 107 % of control; (dose: 400.0 mg/kg/injection, schedule: Q01DX009 (sc), vehicle: steriod suspending solution) 100 % of control.

Turning to `CCN(CC)CCOC(=O)c1ccccc1Nc1cccc(C)c1`, the T/C runs as follows: (dose: 4.0 mg/kg/injection, schedule: Q01DX015 (ip), vehicle: saline) 98 % of control; (dose: 8.0 mg/kg/injection, schedule: Q01DX015 (ip), vehicle: saline) 102 % of control; (dose: 16.0 mg/kg/injection, schedule: Q01DX015 (ip), vehicle: saline) 98 % of control; (dose: 32.0 mg/kg/injection, schedule: Q01DX015 (ip), vehicle: saline) 106 % of control; (dose: 50.0 mg/kg/injection, schedule: Q04DX003 (ip), vehicle: saline) 101 % of control; under setting [1], 103 % of control.

Consider `O=C(NC(=S)Nc1ccc(F)cc1)c1ccco1`, for which the T/C was 94 % of control under setting [7]; 92 % of control (dose: 100.0 mg/kg/injection, schedule: Q01DX009 (ip), vehicle: Klucel (hydroxypropylcellulose) (HPC)); 103 % of control under setting [4]; 97 % of control under setting [5].

Regarding `COc1cccc(NC(=O)NCCCl)c1OC`, the T/C by setting is: under setting [4], 107 % of control; under setting [5], 96 % of control; under setting [6], 102 % of control.

Take `O=[N+]([O-])c1cc(S(=O)(=O)N2CCCC2)ccc1N1CCCC1`: the T/C under setting [1] is 100 % of control, the T/C under setting [2] is 96 % of control and the T/C under setting [3] was 105 % of control.

`Oc1cc2c3c(c1)-c1c(ccc(O)c1O)CC3NCC2` (stereo unspecified): the T/C (dose: 6.25 mg/kg/injection, schedule: Q04DX003 (ip), vehicle: DMSO) is 100 % of control; the T/C (dose: 12.5 mg/kg/injection, schedule: Q04DX003 (ip), vehicle: DMSO) is 100 % of control; the T/C (dose: 25.0 mg/kg/injection, schedule: Q04DX003 (ip), vehicle: DMSO) is 93 % of control; the T/C (dose: 50.0 mg/kg/injection, schedule: Q04DX003 (ip), vehicle: DMSO) was 88 % of control.

Turning to `CN1CCN(C(c2ccccc2)c2ccccc2)CC1`, the T/C runs as follows: (dose: 3.12 mg/kg/injection, schedule: Q01DX009 (ip), vehicle: Klucel (hydroxypropylcellulose) (HPC)) 97 % of control; (dose: 6.25 mg/kg/injection, schedule: Q01DX009 (ip), vehicle: Klucel (hydroxypropylcellulose) (HPC)) 102 % of control; (dose: 12.5 mg/kg/injection, schedule: Q01DX009 (ip), vehicle: Klucel (hydroxypropylcellulose) (HPC)) 97 % of control; (dose: 25.0 mg/kg/injection, schedule: Q01DX009 (ip), vehicle: Klucel (hydroxypropylcellulose) (HPC)) 108 % of control; under setting [8], 97 % of control; under setting [7], 103 % of control. Under setting [9], the T/C is 92 % of control.

Take `Nc1nc[nH]c(=O)c1NC=O`: the T/C under setting [10] was 94 % of control; the T/C (dose: 100.0 mg/kg/injection, schedule: Q04DX003 (ip), vehicle: saline with Tween-80) is 97 % of control; the T/C under setting [11] was 100 % of control; the T/C (dose: 200.0 mg/kg/injection, schedule: Q04DX003 (ip), vehicle: saline with Tween-80) was 98 % of control; the T/C under setting [12] is 104 % of control; the T/C (dose: 400.0 mg/kg/injection, schedule: Q04DX003 (ip), vehicle: saline with Tween-80) is 101 % of control.

For the molecule `Nc1nc(N)c(N)c(=O)[nH]1`, the T/C under setting [8] was 103 % of control; the T/C under setting [9] was 100 % of control; the T/C under setting [10] was 109 % of control; the T/C under setting [4] is 94 % of control and 100 % of control; the T/C under setting [1] was 107 % of control; the T/C under setting [11] was 101 % of control. Further, the T/C under setting [2] is 105 % of control, the T/C under setting [12] is 101 % of control and the T/C under setting [3] was 104 % of control.

With `CCCCC1(C(C)C)C(=O)NC(=O)NC1=O`, the T/C was 102 % of control (dose: 75.0 mg/kg/injection, schedule: Q01DX001 (ip), vehicle: saline) and 96 % of control (dose: 150.0 mg/kg/injection, schedule: Q01DX001 (ip), vehicle: saline).

Turning to `CN(C)CNC=O`, the T/C was 86 % of control (dose: 25.0 mg/kg/injection, schedule: Q01DX009 (ip), vehicle: saline); 96 % of control (dose: 50.0 mg/kg/injection, schedule: Q01DX009 (ip), vehicle: saline); 96 % of control and 99 % of control under setting [10]; 103 % of control under setting [1]; 106 % of control under setting [2]; 97 % of control under setting [3].

Values taken from PubChem BioAssay AID248 (DTP/NCI, 2004).
